Laboratory results published in ChEMBL document CHEMBL1140000, “Synthetic control of interchromophoric interaction in cationic bis-porphyrins toward efficient DNA photocleavage and singlet oxygen production in aqueous solution” (Bioorg Med Chem, 2007).

Tests used:
[1] = system: Escherichia coli; test: Photocleavage activity against pUC18 DNA assessed as conversion supercoiled to nicked circular form relative to H2mXy-Zn complex
[2] = system: Escherichia coli; test: Photocleavage activity against pUC18 DNA assessed as conversion supercoiled to nicked circular form relative to H2TMPyP
[3] = system: Escherichia coli; test: Photocleavage activity against pUC18 DNA assessed as conversion supercoiled to nicked circular form relative to H2pXy-Zn complex
[4] = system: Escherichia coli; test: Photocleavage activity against pUC18 DNA assessed as conversion supercoiled to nicked circular form relative to H2pXy
[5] = system: Escherichia coli; test: Photocleavage activity against pUC18 DNA assessed as increase in conversion supercoiled to nicked circular form in presence of 20% DMSO after 30 mins

Activity [1] [%]	Activity [2] [%]	Activity [3] [%]	Activity [4] [%]	Activity [5] [%]	SMILES
12	28	6	25		C[n+]1ccc(-c2c3nc(c(-c4cc[n+](C)cc4)c4ccc([nH]4)c(-c4cc[n+](C)cc4)c4nc(c(-c5ccc(C(=O)NCc6cccc(CNC(=O)c7ccc(-c8c9nc(c(-c%10cc[n+](C)cc%10)c%10ccc([nH]%10)c(-c%10cc[n+](C)cc%10)c%10nc(c(-c%11cc[n+](C)cc%11)c%11ccc8[nH]%11)C=C%10)C=C9)cc7)c6)cc5)c5ccc2[nH]5)C=C4)C=C3)cc1
		26		95	C[n+]1ccc(-c2c3nc(c(-c4cc[n+](C)cc4)c4ccc([nH]4)c(-c4cc[n+](C)cc4)c4nc(c(-c5ccc(C(=O)NCc6ccc(CNC(=O)c7ccc(-c8c9nc(c(-c%10cc[n+](C)cc%10)c%10ccc([nH]%10)c(-c%10cc[n+](C)cc%10)c%10nc(c(-c%11cc[n+](C)cc%11)c%11ccc8[nH]%11)C=C%10)C=C9)cc7)cc6)cc5)c5ccc2[nH]5)C=C4)C=C3)cc1
